Assay results: article PMC4645123, “Catestatin attenuates endoplasmic reticulum induced cell apoptosis by activation type 2 muscarinic acetylcholine receptor in cardiac ischemia/reperfusion” (Scientific Reports, 2015)

Legend:
H9c2 cells = test: cAMP assay (cAMP-Glo Max Assay Kit); type: cell-based, rat; conditions: for effect of antagonist on CST lowering of isoproterenol-induced cAMP / effect of antagonist on CST lowering of forskolin-induced cAMP: AF-DX116 100 nM or himbacine 1 μM 20 min; for effect of antagonist on CST lowering of isoproterenol-induced cAMP: then CST 50 nM with isoproterenol 1 μM; for effect of antagonist alone on increased cAMP level with isoproterenol: AF-DX116 100 nM or himbacine 1 μM, 20 min pretreatment, isoproterenol 1 μM; for effect of antagonist on CST lowering of forskolin-induced cAMP: pirenzepine 1 μM, then CST 50 nM with forskolin 100 μM
Description: H9c2 cells were subcultured at 1 x 10^4 cells in 96-well plates. Cell were pretreated with […]
pirenzepine (1 μM), AF-DX116 (100 nM) or himbacine (1 μM) for 20 min, then incubated with CST (50 nM) or carbamoylcholine (100 μM) along with isoproterenol (1 μM) or forskolin (100 μM) for 30 min. Cell underwent cAMP assay with the cAMP-Glo Max Assay

M2 receptors = conditions: no reference given; cited from earlier work
Description: To investigate the interaction of CST with M2 receptor and as an endogenous ligand, we used radioactive isotope [^125-I]-labeled CST (0.4 μM) as a ligand, and N-methylscopolamine (NMS:0.045 nM to 0.3 μM) as a “cold” ligand were co-incubated with membrane protein (200 μg) in H9c2 cardiomyblasts.

isolated heart = test: Langendorff-perfused heart, global ischemia/reperfusion (I/R) with CST pretreatment; design: species or system rat; conditions: AF-DX116 pretreating for 20 min before CP, then I/R
Description: Rats fed a standard diet were heparinized (200 IU) and anesthetized with sodium pentobarbital (50 mg/kg, intraperitoneally). Hearts were excised and rapidly moved to a Langendorff perfusion system as described. After 30-min stabilization, hearts underwent 30-min normoxia, zero-flow global ischemia for 30 min, followed by 60-min reperfusion (I/R group). For the CP group, CST (100 nM) was infused for 15 min before ischemia (Fig. 1A). Cardiac function including left ventricular end diastolic pressure (LVEDP), LV systolic pressure (LVSP), and maximal and minimal LV pressure development (±dp/dtmax) were recorded. […] Images in each slice were analyzed by image pro plus software. The volume of infarcted tissue (white) and the risk zone (total) was then calculated by each area […] slice thickness and summing the results. The infarct size was expressed as the percentage of the risk zone[36]. Total 12 rats were sacrificed for the infarct size assay. Other rats, while finished I/R procedure, the apex of heart (about 100 mg) was quickly removed for western blot assay. The residual heart were cut about 5 mm high (from the site of apex), embedded with OCT then the frozen slice were prepared for apoptosis staining (Methods of western blot and apoptosis assay are available in the Supplementary methods online).

M2 receptor = conditions: read-out: KD values, binding ability to M2 receptor; cited from earlier work
Description: Muscarinic receptor expression is abundant in ventricular muscle. Acetylcholine has protective role in cardiac I/R in vitro, but it is non-selective ligand and activates all cholinergic receptor subtype, which limited its application due to enormous side effects. Here we identified that CST is a selective ligand of M2 receptor with high affinity and its intracellular signal (cAMP, PI3 K and ERK1/2) is consistent with M2 receptor agonist.

H9c2 cardiomyoblasts = test: Apoptosis (cleaved caspase-3 staining) in cells under A/R or ER stress inducers; type: cell-based, rat; conditions: PD98059 20 μM or wortmannin 10 nM for 30 min, then CST 100 nM 30 min
Description: H9c2 rat cardiomyoblasts or neonatal cardiomyocytes were cultured in DMEM with 10% fetal bovine serum (FBS) and 1% penicillin/streptomycin at 37 °C, 5% CO2. Medium was changed to fresh medium (serum-free), and cells were cultured under anoxia with 95% N2 and 5% CO2 for 12 h at 37 °C, then incubated in a standard incubator for 4 h (A/R)[38]. […] page 1: Catestatin attenuates endoplasmic reticulum induced cell apoptosis by activation type 2 muscarinic acetylcholine receptor in cardiac ischemia/reperfusion Feng Liao1*, Yang Zheng1*, Junyan Cai1, Jinghui Fan1, Jing Wang1, Jichun Yang1,2, Qinghua Cui1,2, Guoheng Xu1, Chaoshu Tang1, Bin Geng1,2 1. Department of Physiology and Pathophysiology, School of Basic Medical Science, Peking University, P.R. China. 2. Center for Noncoding RNA Medicine, Peking University Health Science Center Online Methods 1. Western blot analysis Cultured H9c2 cells or rat hearts were lysed in RIPA lysis buffer (Cell Signaling). Proteins were denatured and 50 μg protein was loaded and isolated by SDS-PAGE electrophoresis, then transferred to a nitrocellulose membrane. […] The antigens were detected by the chemiluminescence method (ECL western blot detection kit, Applygen) with horseradish peroxidase-linked anti-mouse or anti-rabbit secondary antibody. […] Images were captured by fluorescence microscopy and apoptotic cells were analyzed by use of Image-Pro Plus. […]

[1] = test system: ischemic-reperfused rat heart; conditions: peptide 100 nM treatment for 2 h during reperfusion phase; cited from earlier work
Description: Firstly we identified the endogenous CST reducing after I/R, but its precursor ChgA expression were no changes. That means increased enzymes (which catalyzed ChgA to generate CST) activity during I/R, although the enzymes were not identified until now. CST pretreatment compensated to endogenous CST decrease, thus lowered the infarct size and improved cardiac function in rats under I/R, which agreed with studies of CST post-conditioning[16][17]. However, human wild type CST (100 nM) treatment for 2 h during reperfusion phase increased, but Gly^364Ser variant peptide lowered infarct size; becaus ...

[2] = molecular target: T1, M2 muscarinic acetylcholine receptor (Rattus norvegicus, UniProt P10980); test: radioligand binding (Scatchard)
T1 chain: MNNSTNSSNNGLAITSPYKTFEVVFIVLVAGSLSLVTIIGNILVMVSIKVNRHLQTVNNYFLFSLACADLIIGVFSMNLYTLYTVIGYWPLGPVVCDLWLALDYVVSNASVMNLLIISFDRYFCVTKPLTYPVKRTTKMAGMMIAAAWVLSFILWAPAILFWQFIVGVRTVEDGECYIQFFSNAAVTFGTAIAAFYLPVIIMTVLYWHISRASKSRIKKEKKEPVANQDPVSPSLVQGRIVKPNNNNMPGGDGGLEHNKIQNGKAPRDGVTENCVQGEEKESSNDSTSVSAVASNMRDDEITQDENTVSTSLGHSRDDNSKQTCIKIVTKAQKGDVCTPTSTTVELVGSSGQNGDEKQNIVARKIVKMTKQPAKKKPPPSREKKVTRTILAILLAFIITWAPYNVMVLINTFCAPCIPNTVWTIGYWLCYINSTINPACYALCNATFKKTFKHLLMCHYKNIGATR

[3] = molecular target: T1, M2 muscarinic acetylcholine receptor; test: radioligand competition binding

## CCN(CC)CC1CCCCN1CC(=O)N1c2ccccc2C(=O)Nc2cccnc21 (centres unmarked) [AF-DX116, Otenzepad]
H9c2 cells
  effect of antagonist on CST lowering of isoproterenol-induced cAMP: blocked
  effect of antagonist alone on increased cAMP level with isoproterenol: did not affect
  effect of antagonist on CST lowering of forskolin-induced cAMP: blocked
M2 receptors
  IC50: 50 nM
Isolated heart
  effect on the protective effects of CP on infarct size, LDH leakage and cTNI level: blocked

## COc1ccc2cc3[n+](cc2c1OC)CCc1cc2c(cc1-3)OCO2 [Berberine]
M2 receptor
  Kd: 5400 nM

## COc1cccc(-c2cc(=O)c3ccccc3o2)c1N [PD98059]
H9c2 cardiomyoblasts
  effect of inhibitor on CST protection on cell apoptosis: reversed

## C[N+](C)(C)CCOC(N)=O [carbamoylcholine]
H9c2 cells; CST 50 nM or carbamoylcholine 100 μM with isoproterenol 1 μM for 30 min
  cAMP level induced by isoproterenol: lowered

## C[C@@H]1OC(=O)[C@H]2C[C@H]3CCCC[C@@H]3[C@@H](/C=C/[C@H]3CCC[C@H](C)N3C)[C@@H]12 [himbacine]
H9c2 cells
  effect of antagonist on CST lowering of isoproterenol-induced cAMP: blocked
  effect of antagonist alone on increased cAMP level with isoproterenol: did not affect
  effect of antagonist on CST lowering of forskolin-induced cAMP: blocked

## COC[C@H]1OC(=O)c2coc3c2[C@@]1(C)C1=C(C3=O)[C@@H]2CCC(=O)[C@@]2(C)C[C@H]1OC(C)=O [wortmannin]
H9c2 cardiomyoblasts
  effect of inhibitor on CST protection on cell apoptosis: reversed

## Gly^364Ser variant peptide: Gly364Ser variant of human catestatin
[1]
  infarct size: lowered

## SSMKLSFRARGYGFRGPGPQL (AF-DX116 50 nM)
[2]
  Kd: 45.8 nM
[3]
  IC50: 36 nM

## SSMKLSFRARGYGFRGPGPQL
[2]
  Kd: 18.6 nM
[3]
  IC50: 25.7 nM
